In the NIST ThermoML archive (doi:10.1021/acs.jced.8b01165):
± gives the expanded uncertainty stated by the source.

Key:
[1] = Crystal; DSC
[2] = Molar enthalpy of transition or fusion; details: Crystal; DSC

With `C=C(C)C1Cc2c(ccc3c2OC2COc4cc(OC)c(OC)cc4C2C3=O)O1` (configuration not stated) as the compound, how does the Triple point temperature [1] read?
Its Triple point temperature is 435.89 ± 1 K.

What about the “Molar enthalpy of transition or fusion” value [2] of the same compound?
Its value is 6.8 ± 0.203 kcal/mol.
